Source: patent publication US20250171438A1 (Agios Pharmaceuticals, Inc., priority 2022, published 2025)

Each compound was assayed against T1, human PAH with the R408W mutation (Homo sapiens, UniProt P00439, R408W) (assay: Cell Based Phenylalanine Flux Assay). Details: A375 cells expressing human R408W PAH; 24 hrs compound incubation; 13C-Tyrosine by LC-MS; average where tested multiple times; read-out: AC50.
T1 construct: expressed in transfected cells
T1 sequence (P00439 1-452 R408W): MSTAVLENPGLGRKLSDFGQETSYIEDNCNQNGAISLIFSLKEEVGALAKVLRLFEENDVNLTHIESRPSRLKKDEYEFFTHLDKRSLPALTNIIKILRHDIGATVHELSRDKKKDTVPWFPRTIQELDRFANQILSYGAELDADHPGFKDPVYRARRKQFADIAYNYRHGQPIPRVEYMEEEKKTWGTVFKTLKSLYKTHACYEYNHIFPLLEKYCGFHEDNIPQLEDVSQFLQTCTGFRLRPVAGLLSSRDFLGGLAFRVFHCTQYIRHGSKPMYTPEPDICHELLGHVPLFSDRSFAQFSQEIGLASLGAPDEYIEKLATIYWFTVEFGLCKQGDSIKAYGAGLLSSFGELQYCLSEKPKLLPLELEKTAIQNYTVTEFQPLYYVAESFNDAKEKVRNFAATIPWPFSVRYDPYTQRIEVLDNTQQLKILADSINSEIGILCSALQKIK
Cc1c(-c2nnc(C(=O)N3CCc4[nH]cnc4[C@@H]3c3nc4ccccc4s3)o2)cnn1C [Example 1846, (R)-(4-(benzo[d]thiazol-2-yl)-6,7-dihydro-1H-imidazo[4,5-c]pyridin-5(4H)-yl)(5-(1,5-dimethyl-1H-pyrazol-4-yl)-1,3,4-oxadiazol-2-yl)methanone] showed an AC50 of 1000 to 5000 nM. Compound O=C(c1nnc(-c2ccc(C(F)(F)F)cn2)o1)N1CCc2[nH]cnc2[C@@H]1c1nc2c(F)cccc2s1 [Example 1847, (R)-(4-(4-fluorobenzo[d]thiazol-2-yl)-6,7-dihydro-1H-imidazo[4,5-c]pyridin-5(4H)-yl)(5-(5-(trifluoromethyl)pyridin-2-yl)-1,3,4-oxadiazol-2-yl)methanone] has an AC50 of 1000 to 5000 nM. O=C(c1nnc(-c2ccc(C(F)(F)F)cn2)o1)N1CCc2[nH]cnc2[C@H]1c1nc2c(F)cccc2s1 [Example 1848, (S)-(4-(4-fluorobenzo[d]thiazol-2-yl)-6,7-dihydro-1H-imidazo[4,5-c]pyridin-5(4H)-yl)(5-(5-(trifluoromethyl)pyridin-2-yl)-1,3,4-oxadiazol-2-yl)methanone] gave an AC50 of 1000 to 5000 nM. O=C(c1oc(-c2ccccn2)nc1Br)N1CCc2[nH]cnc2[C@@H]1c1nc2ccccc2s1 [Example 1849, (R)-(4-(benzo[d]thiazol-2-yl)-6,7-dihydro-1H-imidazo[4,5-c]pyridin-5(4H)-yl)(4-bromo-2-(pyridin-2-yl)oxazol-5-yl)methanone] gave an AC50 of 1000 to 5000 nM. O=C(c1oc(-c2ccccn2)nc1Br)N1CCc2[nH]cnc2[C@H]1c1nc2ccccc2s1 [Example 1850] gave an AC50 of under 500 nM. With CC1(c2nc(C(F)F)c(C(=O)N3CCc4[nH]cnc4[C@H]3c3nc4ccccc4s3)o2)CC1 [Example 1851] the AC50 was under 500 nM. With CC1(c2nc(C(F)F)c(C(=O)N3CCc4[nH]cnc4[C@@H]3c3nc4ccccc4s3)o2)CC1 [Example 1852, (R)-(4-(benzo[d]thiazol-2-yl)-6,7-dihydro-1H-imidazo[4,5-c]pyridin-5(4H)-yl)(4-(difluoromethyl)-2-(1-methylcyclopropyl)oxazol-5-yl)methanone] the AC50 was under 500 nM. With Cn1nc(C2CCC2)cc1C(=O)N1CCc2[nH]cnc2[C@H]1c1nc2c(F)cccc2s1 [Example 1853] the AC50 was 1000 to 5000 nM. Cn1nc(C2CCC2)cc1C(=O)N1CCc2[nH]cnc2[C@@H]1c1nc2c(F)cccc2s1 [Example 1854, (R)-(3-cyclobutyl-1-methyl-1H-pyrazol-5-yl)(4-(4-fluorobenzo[d]thiazol-2-yl)-6,7-dihydro-1H-imidazo[4,5-c]pyridin-5(4H)-yl)methanone] gave an AC50 of 1000 to 5000 nM. Compound O=C(c1ccnn1-c1ccccn1)N1CCc2[nH]cnc2[C@H]1c1nc2ccccc2s1 [Example 1855] has an AC50 of under 500 nM. O=C(c1cn[nH]c1C(F)F)N1CCc2[nH]cnc2[C@H]1c1nc2ccccc2s1 [Example 1857] showed an AC50 of under 500 nM. In the case of O=C(c1cn[nH]c1C(F)F)N1CCc2[nH]cnc2[C@@H]1c1nc2ccccc2s1 [Example 1858, (R)-(4-(benzo[d]thiazol-2-yl)-6,7-dihydro-1H-imidazo[4,5-c]pyridin-5(4H)-yl)(5-(difluoromethyl)-1H-pyrazol-4-yl)methanone], the AC50 is reported as 1000 to 5000 nM. With O=C(c1cn[nH]c1C(F)F)N1CCc2[nH]cnc2[C@H]1c1nc2c(F)cccc2s1 [Example 1859] the AC50 was under 500 nM. O=C(c1cn[nH]c1C(F)F)N1CCc2[nH]cnc2[C@@H]1c1nc2c(F)cccc2s1 [Example 1860, (R)-(5-(difluoromethyl)-1H-pyrazol-4-yl)(4-(4-fluorobenzo[d]thiazol-2-yl)-6,7-dihydro-1H-imidazo[4,5-c]pyridin-5(4H)-yl)methanone] was tested, and the AC50 was 1000 to 5000 nM. O=C(c1cn[nH]c1Cl)N1CCc2[nH]cnc2[C@@H]1c1nc2c(F)cccc2s1 [Example 1861, (R)-(5-chloro-1H-pyrazol-4-yl)(4-(4-fluorobenzo[d]thiazol-2-yl)-6,7-dihydro-1H-imidazo[4,5-c]pyridin-5(4H)-yl)methanone] gave an AC50 of 1000 to 5000 nM. Compound O=C(c1cn[nH]c1Cl)N1CCc2[nH]cnc2[C@H]1c1nc2c(F)cccc2s1 [Example 1862] has an AC50 of 500 to 1000 nM. Compound O=C(c1nnc(-c2cn[nH]c2)o1)N1CCc2[nH]cnc2[C@H]1c1nc2c(F)cccc2s1 [Example 1863] has an AC50 of 500 to 1000 nM. In the case of O=C(c1nnc(-c2cn[nH]c2)o1)N1CCc2[nH]cnc2[C@@H]1c1nc2c(F)cccc2s1 [Example 1864, (R)-(5-(1H-pyrazol-4-yl)-1,3,4-oxadiazol-2-yl)(4-(4-fluorobenzo[d]thiazol-2-yl)-6,7-dihydro-1H-imidazo[4,5-c]pyridin-5(4H)-yl)methanone], the AC50 is reported as 1000 to 5000 nM. COCc1ccc2c(C(=O)N3CCc4[nH]cnc4[C@@H]3c3nc4ccccc4s3)c(C#N)nn2c1 [Example 1865, (R)-3-(4-(benzo[d]thiazol-2-yl)-4,5,6,7-tetrahydro-1H-imidazo[4,5-c]pyridine-5-carbonyl)-6-(methoxymethyl)pyrazolo[1,5-a]pyridine-2-carbonitrile] showed an AC50 of over 5000 nM. Work on COCc1ccc2c(C(=O)N3CCc4[nH]cnc4[C@H]3c3nc4ccccc4s3)c(C#N)nn2c1 [Example 1866, (S)-3-(4-(benzo[d]thiazol-2-yl)-4,5,6,7-tetrahydro-1H-imidazo[4,5-c]pyridine-5-carbonyl)-6-(methoxymethyl)pyrazolo[1,5-a]pyridine-2-carbonitrile] yielded an AC50 of under 500 nM. Compound COCCc1ccc2c(C(=O)N3CCc4[nH]cnc4[C@H]3c3nc4ccccc4s3)c(C#N)nn2c1 [Example 1867, (S)-3-(4-(benzo[d]thiazol-2-yl)-4,5,6,7-tetrahydro-1H-imidazo[4,5-c]pyridine-5-carbonyl)-6-(2-methoxyethyl)pyrazolo[1,5-a]pyridine-2-carbonitrile] has an AC50 of under 500 nM. COCCc1ccc2c(C(=O)N3CCc4[nH]cnc4[C@@H]3c3nc4ccccc4s3)c(C#N)nn2c1 [Example 1868, (R)-3-(4-(benzo[d]thiazol-2-yl)-4,5,6,7-tetrahydro-1H-imidazo[4,5-c]pyridine-5-carbonyl)-6-(2-methoxyethyl)pyrazolo[1,5-a]pyridine-2-carbonitrile] gave an AC50 of 1000 to 5000 nM. Cn1cc(C(=O)N2CCc3[nH]cnc3[C@@H]2c2nc3ccccc3s2)c(Cl)n1 [Example 1869, (R)-(4-(benzo[d]thiazol-2-yl)-6,7-dihydro-1H-imidazo[4,5-c]pyridin-5(4H)-yl)(3-chloro-1-methyl-1H-pyrazol-4-yl)methanone] gave an AC50 of over 5000 nM. Cn1cc(C(=O)N2CCc3[nH]cnc3[C@H]2c2nc3ccccc3s2)c(Cl)n1 [Example 1870] showed an AC50 of under 500 nM. Compound O=C(c1nnc(-c2cnn(CC(F)F)c2)o1)N1CCc2[nH]cnc2[C@H]1c1nc2ccccc2s1 [Example 1871] has an AC50 of under 500 nM. In the case of O=C(c1nnc(-c2cnn(CC(F)F)c2)o1)N1CCc2[nH]cnc2[C@@H]1c1nc2ccccc2s1 [Example 1872, (R)-(4-(benzo[d]thiazol-2-yl)-6,7-dihydro-1H-imidazo[4,5-c]pyridin-5(4H)-yl)(5-(1-(2,2-difluoroethyl)-1H-pyrazol-4-yl)-1,3,4-oxadiazol-2-yl)methanone], the AC50 is reported as 1000 to 5000 nM. For O=C(c1nnc(-c2ccn(C(F)F)n2)o1)N1CCc2[nH]cnc2[C@H]1c1nc2ccccc2s1 [Example 1873], the AC50 was under 500 nM. O=C(c1nnc(-c2ccn(C(F)F)n2)o1)N1CCc2[nH]cnc2[C@@H]1c1nc2ccccc2s1 [Example 1874, (R)-(4-(benzo[d]thiazol-2-yl)-6,7-dihydro-1H-imidazo[4,5-c]pyridin-5(4H)-yl)(5-(1-(difluoromethyl)-1H-pyrazol-3-yl)-1,3,4-oxadiazol-2-yl)methanone] gave an AC50 of 1000 to 5000 nM. Work on O=C(c1nnc(-c2ccc(F)cc2F)o1)N1CCc2[nH]cnc2[C@@H]1c1nc2c(F)cccc2s1 [Example 1875, (R)-(5-(2,4-difluorophenyl)-1,3,4-oxadiazol-2-yl)(4-(4-fluorobenzo[d]thiazol-2-yl)-6,7-dihydro-1H-imidazo[4,5-c]pyridin-5(4H)-yl)methanone] yielded an AC50 of 1000 to 5000 nM. O=C(c1nnc(-c2ccc(F)cc2F)o1)N1CCc2[nH]cnc2[C@H]1c1nc2c(F)cccc2s1 [Example 1876, (S)-(5-(2,4-difluorophenyl)-1,3,4-oxadiazol-2-yl)(4-(4-fluorobenzo[d]thiazol-2-yl)-6,7-dihydro-1H-imidazo[4,5-c]pyridin-5(4H)-yl)methanone] was tested, and the AC50 was under 500 nM. O=C(c1nnc(-c2ccc(F)c(F)c2)o1)N1CCc2[nH]cnc2[C@@H]1c1nc2c(F)cccc2s1 [Example 1877, (R)-(5-(3,4-difluorophenyl)-1,3,4-oxadiazol-2-yl)(4-(4-fluorobenzo[d]thiazol-2-yl)-6,7-dihydro-1H-imidazo[4,5-c]pyridin-5(4H)-yl)methanone] gave an AC50 of 1000 to 5000 nM. With O=C(c1nnc(-c2ccc(F)c(F)c2)o1)N1CCc2[nH]cnc2[C@H]1c1nc2c(F)cccc2s1 [Example 1878, (S)-(5-(3,4-difluorophenyl)-1,3,4-oxadiazol-2-yl)(4-(4-fluorobenzo[d]thiazol-2-yl)-6,7-dihydro-1H-imidazo[4,5-c]pyridin-5(4H)-yl)methanone] the AC50 was under 500 nM. With Cc1ccc(-c2nnc(C(=O)N3CCc4[nH]cnc4[C@@H]3c3nc4ccccc4s3)o2)nc1 [Example 1879, (R)-(4-(benzo[d]thiazol-2-yl)-6,7-dihydro-1H-imidazo[4,5-c]pyridin-5(4H)-yl)(5-(5-methylpyridin-2-yl)-1,3,4-oxadiazol-2-yl)methanone] the AC50 was 1000 to 5000 nM. Compound Cc1ccc(-c2nnc(C(=O)N3CCc4[nH]cnc4[C@H]3c3nc4ccccc4s3)o2)nc1 [Example 1880] has an AC50 of under 500 nM.
